The values below come from paper PMC9151520 (Archives of Toxicology, 2022).

The subject of experiment [1] is p53 signaling (p53RE-bla HCT-116 cells). Briefly: cells. It counts as cell-based.
For experiment [2] the test system is unchanged.
Experiment [3] has the same test system. The source holds these as a separate data set.
The subject of experiment [4] is p53RE-bla HCT-116 cells.
Experiment [5] relates to p53RE-bla HCT-116 cells. Briefly: cells. The note with it: Homo sapiens.
[6] abbreviates: Homo sapiens, HCT-116, read-out: p53 activation EC50, primary screening.
Setting [7] is: Homo sapiens, HCT-116, read-out: p53 activation efficacy, primary screening.
The mark [8] stands for this setting: HCT-116, read-out: Viability EC50, cherry pick confirmation.
The mark [9] stands for this setting: Homo sapiens, HCT-116, read-out: p53 activation EC50, cherry pick confirmation.
The mark [10] stands for this setting: Homo sapiens, HCT-116, read-out: p53 activation efficacy, cherry pick confirmation.
Where [11] appears, read: HCT-116, read-out: Viability EC50, primary screening.
[12] abbreviates: read-out: Viability EC50, primary screening.

The structures appear in SMILES notation. “And” between values parts separate entries of the source, which are not always exact repeats. Equal values may be shown once. Where a name gives a salt, the structure may show the parent alone. Read-outs that look alike come from different tables or passages of the source.

As for `CC(C)(C)[C@H]1CC[C@H](CC2=C(O)C(=O)c3ccccc3C2=O)CC1` [Buparvaquone], in experiment [1], the “p53 activation EC50, cherry pick confirmation” value was “inactive” and the “p53 activation efficacy, cherry pick confirmation” value is “inactive”. Also, the EC50 in experiment [1] (setting [6]) came to 1.41 µM. Also, the Emax in experiment [1] (setting [7]) is 33.8%. In experiment [2], the “p53 activation EC50, cherry pick confirmation” value is “inactive”; the “p53 activation EC50, primary screening” value is “inactive”; the “p53 activation efficacy, cherry pick confirmation” value was “inactive”; the “p53 activation efficacy, primary screening” value is “inactive”. Also, in experiment [3], the “p53 activation EC50, cherry pick confirmation” value is “inactive”; the “p53 activation EC50, primary screening” value is “inactive”; the “p53 activation efficacy, cherry pick confirmation” value is “inactive”; the “p53 activation efficacy, primary screening” value is “inactive”. Also, in the experiment on p53RE-bla HCT-116 cells [4], the “Viability EC50, cherry pick confirmation” value was “inactive”; the “Viability EC50, primary screening” value was “inactive”; the “Viability efficacy, primary screening” value was “inactive”. Besides, in the experiment with p53RE-bla HCT-116 cells [5] (setting [8]), the EC50 came out at 1.99 µM.
Turning to `CC(C)C[C@H](NC(=O)[C@H](CCc1ccccc1)NC(=O)CN1CCOCC1)C(=O)N[C@@H](Cc1ccccc1)C(=O)N[C@@H](CC(C)C)C(=O)[C@@]1(C)CO1` [Carfilzomib], in experiment [1] (setting [9]), the EC50 amounted to 0.0597 µM. Also, in experiment [1] (setting [6]), the EC50 turned out to be 0.142 µM. For the same compound, the Emax in experiment [1] (setting [10]) amounted to 111%. For the same compound, the Emax in experiment [1] (setting [7]) turned out to be 82%. In experiment [2], the “p53 activation EC50, cherry pick confirmation” value is “inactive”; the “p53 activation EC50, primary screening” value was “inactive”; the “p53 activation efficacy, cherry pick confirmation” value was “inactive”; the “p53 activation efficacy, primary screening” value was “inactive”. Also, in experiment [3], the “p53 activation EC50, cherry pick confirmation” value was “inactive”; the “p53 activation EC50, primary screening” value is “inactive”; the “p53 activation efficacy, cherry pick confirmation” value was “inactive”; the “p53 activation efficacy, primary screening” value was “inactive”. In addition, in the experiment on p53RE-bla HCT-116 cells [4], the “Viability EC50, cherry pick confirmation” value was “inactive” and the “Viability EC50, primary screening” value is “inactive”. For the same compound, the EC50 in the experiment on p53RE-bla HCT-116 cells [5] (setting [11]) stood at 0.75 µM.
In the case of `COc1cc(/C=C/C(=O)CC(=O)/C=C/c2ccc(O)c(OC)c2)ccc1O` [Curcumin], the “p53 activation EC50, cherry pick confirmation” value in experiment [1], in experiment [2] and in experiment [3] was “inactive” throughout. Besides, the “p53 activation efficacy, cherry pick confirmation” value in experiment [1], in experiment [2] and in experiment [3] was “inactive” in each case. Further, the EC50 in experiment [1] (setting [6]) was 15.4 µM; in the experiment with p53RE-bla HCT-116 cells [4] (setting [12]) it was 38 µM and 46.9 µM; in the experiment with p53RE-bla HCT-116 cells [5] (setting [8]), 16.3 µM; in the experiment with p53RE-bla HCT-116 cells [5] (setting [11]), 31.7 µM. Moreover, in experiment [1] (setting [7]), the Emax amounted to 65.1%. Further, the “p53 activation EC50, primary screening” value in experiment [2] and in experiment [3] was “inactive” in each case. Also, the “p53 activation efficacy, primary screening” value in experiment [2] and in experiment [3] was “inactive” in each case. Also, in the experiment with p53RE-bla HCT-116 cells [4], the “Viability EC50, cherry pick confirmation” value is “inactive”.
Take `CCOC(=O)C1(c2ccccc2)CCN(CCC(C#N)(c2ccccc2)c2ccccc2)CC1` [Diphenoxylate hydrochloride]: the EC50 in experiment [1] (setting [9]) was determined as 8.23 µM. In addition, the EC50 in experiment [1] (setting [6]) is 6.87 µM. Besides, the Emax in experiment [1] (setting [10]) turned out to be 152%. In addition, the Emax in experiment [1] (setting [7]) came out at 77.1%. Further, in experiment [2], the “p53 activation EC50, cherry pick confirmation” value is “inactive”; the “p53 activation EC50, primary screening” value was “inactive”; the “p53 activation efficacy, cherry pick confirmation” value is “inactive”; the “p53 activation efficacy, primary screening” value is “inactive”. For the same compound, in experiment [3], the “p53 activation EC50, cherry pick confirmation” value was “inactive”; the “p53 activation EC50, primary screening” value was “inactive”; the “p53 activation efficacy, cherry pick confirmation” value was “inactive”; the “p53 activation efficacy, primary screening” value was “inactive”. Further, in the experiment with p53RE-bla HCT-116 cells [4], the “Viability EC50, cherry pick confirmation” value was “inactive”; the “Viability EC50, primary screening” value was “inactive”; the “Viability efficacy, primary screening” value is “inactive”. Further, in the experiment with p53RE-bla HCT-116 cells [5] (setting [8]), the EC50 amounted to 3.16 µM.
As for `Oc1ccc(Cl)cc1Sc1cc(Cl)ccc1O` [Fenticlor], the concentration giving a half-maximal response (EC50) was 18.1 µM in experiment [1] (setting [9]), 34.2 µM in experiment [1] (setting [6]), 18.7 µM with p53RE-bla HCT-116 cells [4] (setting [12]) and 27.7 µM in the experiment on p53RE-bla HCT-116 cells [5] (setting [11]). Also, the Emax in experiment [1] (setting [10]) stood at 54.9%; in experiment [1] (setting [7]), 52.2%. In addition, the “p53 activation EC50, cherry pick confirmation” value in experiment [2] and in experiment [3] was “inactive” each time. Also, the “p53 activation EC50, primary screening” value in experiment [2] and in experiment [3] was “inactive” throughout. Further, the “p53 activation efficacy, cherry pick confirmation” value in experiment [2] and in experiment [3] was “inactive” throughout. Further, the “p53 activation efficacy, primary screening” value in experiment [2] and in experiment [3] was “inactive” in each case. Also, the “Viability EC50, primary screening” value in the experiment with p53RE-bla HCT-116 cells [4] was “inactive”.
Consider `CN(C)c1ccc(C(=C2C=CC(=[N+](C)C)C=C2)c2ccc(N(C)C)cc2)cc1` [Gentian Violet], for which the concentration for a half-maximal effect (EC50) was 23.6 µM in experiment [1] (Homo sapiens, HCT-116, read-out: EC50, p53 activation, cherry pick confirmation); 51.1 µM in experiment [1] (Homo sapiens, HCT-116, read-out: EC50, p53 activation, primary screening); 27.6 µM and 21.3 µM in the experiment on p53RE-bla HCT-116 cells [4] (read-out: EC50, viability, cherry pick confirmation); 16 µM and 24.9 µM with p53RE-bla HCT-116 cells [4] (read-out: EC50, viability, primary screening); 22 µM in the experiment on p53RE-bla HCT-116 cells [5] (HCT-116, read-out: EC50, viability, cherry pick confirmation); 29.2 µM in the experiment on p53RE-bla HCT-116 cells [5] (HCT-116, read-out: EC50, viability, primary screening). In addition, the Emax in experiment [1] (Homo sapiens, HCT-116, read-out: Efficacy, p53 activation, cherry pick confirmation) stood at 48.7%; in experiment [1] (Homo sapiens, HCT-116, read-out: Efficacy, p53 activation, primary screening), 65.5%. The “EC50, p53 activation, cherry pick confirmation” value in experiment [2] and in experiment [3] was “inactive” in each case. Besides, the “EC50, p53 activation, primary screening” value in experiment [2] and in experiment [3] was “inactive” in each case. Moreover, the “Efficacy, p53 activation, cherry pick confirmation” value in experiment [2] and in experiment [3] was “inactive” each time. Besides, the “Efficacy, p53 activation, primary screening” value in experiment [2] and in experiment [3] was “inactive” throughout.
As to `Oc1c(Cl)cc(Cl)c(Cl)c1Cc1c(O)c(Cl)cc(Cl)c1Cl` [Hexachlorophene], the concentration for a half-maximal effect (EC50) in experiment [1] (setting [9]) was 18 µM; in experiment [1] (setting [6]), 19.9 µM; in the experiment with p53RE-bla HCT-116 cells [5] (setting [8]), 2.23 µM. In addition, the Emax in experiment [1] (setting [10]) is 99.6%; in experiment [1] (setting [7]), 45.4%. Also, the “p53 activation EC50, cherry pick confirmation” value in experiment [2] and in experiment [3] was “inactive” each time. Besides, the “p53 activation EC50, primary screening” value in experiment [2] and in experiment [3] was “inactive” throughout. Moreover, the “p53 activation efficacy, cherry pick confirmation” value in experiment [2] and in experiment [3] was “inactive” in each case. In addition, the “p53 activation efficacy, primary screening” value in experiment [2] and in experiment [3] was “inactive” throughout. For the same compound, the “Viability EC50, cherry pick confirmation” value with p53RE-bla HCT-116 cells [4] is “inactive”.
`CC(C)=CCC1=C(O)C(=O)c2ccccc2C1=O` [Lapachol] had a p53 activation efficacy in experiment [1] of 104.839. For the same compound, the EC50 was determined as 3.38 µM in experiment [1] (read-out: p53 activation EC50) and 1.38 µM with p53RE-bla HCT-116 cells [5] (HCT-116, read-out: Viability EC50). Besides, the “p53 activation EC50” value in experiment [2] and in experiment [3] was “inactive” each time. Moreover, the “Viability EC50” value with p53RE-bla HCT-116 cells [4] was “inactive”.

By EC50 is commonly meant the concentration at which the effect is half-maximal.
